This note sets out measurements from ChEMBL document CHEMBL2029327, “Synthetic menthyl α/β-(1→6)-diglucopyranosides-induced cell death in human leukemia cells is dependent on caspases” (Bioorg Med Chem Lett, 2012).

Assay type in all cases: functional, cell-based
In test [1] the test system is MOLT-3. Kind of test: Cytotoxicity against human MOLT3 cells assessed as morphological changes at 10 uM after 24 hrs by inverted phase-contrast microscopic analysis.
The subject of test [2] is MOLT-3. The experiment in a line: Induction of apoptosis in human MOLT3 cells assessed as increase in chromatin condensation at 10 uM after 24 hrs by Hoechst staining-based flow cytometric analysis.
Test [3] deals with U-937. Kind of test: Cytotoxicity against human U937 cells after 72 hrs by MTT assay. The following applies: for pIC50: U-937, 72 h.
For test [4], the system named is U-937. The experiment in a line: Cytotoxicity against human U937 cells assessed as morphological changes at 10 uM after 24 hrs by inverted phase-contrast microscopic analysis.
Test [5] concerns HL-60. Kind of test: Induction of apoptosis in human HL60 cells assessed as […] hydrolysis of chromatin at 10 uM after 24 hrs by agarose gel electrophoretic analysis.
Test [6] concerns U-937. The experiment in a line: Induction of apoptosis in human U937 cells assessed as increase in chromatin condensation at 10 uM after 24 hrs by Hoechst staining-based flow cytometric analysis.
In test [7] the test system is MOLT-3. Kind of test: Cytotoxicity against human MOLT3 cells after 72 hrs by MTT assay. The following applies: for pIC50: MOLT-3, 72 h.
The test system of test [8] is HL-60. The experiment in a line: Cytotoxicity against human HL60 cells assessed as morphological changes at 10 uM after 24 hrs by inverted phase-contrast microscopic analysis.
For test [9], the system named is HL-60. The experiment in a line: Cytotoxicity against human HL60 cells assessed as reduction in cell number at 10 uM after 24 hrs by inverted phase-contrast microscopic analysis.
Test [10] deals with MOLT-3. The experiment in a line: Induction of apoptosis in human MOLT3 cells assessed as […] hydrolysis of chromatin at 10 uM after 24 hrs by agarose gel electrophoretic analysis.
Test [11] deals with HL-60. The experiment in a line: Induction of apoptosis in human HL60 cells assessed as increase in chromatin condensation at 10 uM after 24 hrs by Hoechst staining-based flow cytometric analysis.
The subject of test [12] is U-937. Kind of test: Cytotoxicity against human U937 cells assessed as reduction in cell number at 10 uM after 24 hrs by inverted phase-contrast microscopic analysis.
Test [13] has as its system HL-60. Kind of test: Cytotoxicity against human HL60 cells after 72 hrs by MTT assay. The following applies: for pIC50: HL-60, 72 h.
The subject of test [14] is MCF7. Kind of test: Cytotoxicity against human MCF7 cells assessed as morphological changes at 10 uM after 24 hrs by inverted phase-contrast microscopic analysis.
Test [15] has as its system MCF7. The experiment in a line: Cytotoxicity against human MCF7 cells after 72 hrs by MTT assay. The following applies: for pIC50: MCF7, 72 h.
The subject of test [16] is MOLT-3. Kind of test: Cytotoxicity against human MOLT3 cells assessed as reduction in cell number at 10 uM after 24 hrs by inverted phase-contrast microscopic analysis.
The subject of test [17] is U-937. Kind of test: Induction of apoptosis in human U937 cells assessed as […] hydrolysis of chromatin at 10 uM after 24 hrs by agarose gel electrophoretic analysis.

pIC50: −log10 of the molar value. The source made the active and inactive calls. No cut-off for these calls is given here.

Turning to `CC(C)[C@@H]1CC[C@@H](C)C[C@H]1O[C@@H]1O[C@H](CO[C@@H]2O[C@H](COC(=O)c3ccc(Br)cc3)[C@@H](OC(=O)c3ccc(Br)cc3)[C@H](O)[C@H]2O)[C@@H](O)[C@H](O)[C@H]1O`, the outcome with MOLT-3 [1], in the test on MOLT-3 [2], with U-937 [4], in the test with HL-60 [5], in the test on U-937 [6] and with HL-60 [8] was Active. Further, the result with HL-60 [9], in the test with MOLT-3 [10], in the test with HL-60 [11], with U-937 [12], with MCF7 [14] and in the test with MOLT-3 [16] was Active. Moreover, in the test with U-937 [17], the outcome was Active. The Activity entry with U-937 [3], in the test on MOLT-3 [7], in the test on HL-60 [13] and with MCF7 [15] was “Dose-dependent effect” throughout. Besides, the pIC50 in the test with U-937 [3] was 5.04; in the test with MOLT-3 [7], 4.94; in the test with HL-60 [13], 5.15; in the test with MCF7 [15], 4.89.
For the compound `CC(C)[C@@H]1CC[C@@H](C)C[C@H]1OC1O[C@H](CO[C@@H]2O[C@H](COC(=O)c3ccc(Br)cc3)[C@@H](OC(=O)c3ccc(Br)cc3)[C@H](O)[C@H]2O)[C@@H](O)[C@H](O)[C@H]1O` (single isomer, unassigned), the outcome with MOLT-3 [1], with MOLT-3 [2], with U-937 [4], with HL-60 [5], in the test on U-937 [6] and in the test with HL-60 [8] was Active. In addition, the result in the test with HL-60 [9], with MOLT-3 [10], in the test on HL-60 [11], in the test with U-937 [12], in the test on MCF7 [14] and in the test with MOLT-3 [16] was Active. Moreover, the result with U-937 [17] was Active. Further, the Activity entry in the test with U-937 [3], in the test on MOLT-3 [7], with HL-60 [13] and with MCF7 [15] was “Dose-dependent effect” in each case. The pIC50 in the test with U-937 [3] was 5.24; with MOLT-3 [7] it was 4.97; in the test with HL-60 [13], 5.15; in the test with MCF7 [15], 4.92.
